According to patent US5770575A, “Nipecotic acid derivatives as antithrombotic compounds” (Ortho Pharmaceutical Corporation, priority 1995, dated 1998):
Values belong to the molecule of their own block, whether it stands above or below them.

How the values were obtained:
GPIIb/IIIa = molecular target: T1, GPIIb/IIIa (Homo sapiens, UniProt P05106+P08514); assay: In vitro solid phase purified glycoprotein IIb/IIIa binding assay (biotinylated fibrinogen); settings: for IC50: Table I; for inhibition at 50 µM: read-out: Binding (column Binding IC50), % @ 50 μM
T1 sequence (P08514 32-887 limits assumed): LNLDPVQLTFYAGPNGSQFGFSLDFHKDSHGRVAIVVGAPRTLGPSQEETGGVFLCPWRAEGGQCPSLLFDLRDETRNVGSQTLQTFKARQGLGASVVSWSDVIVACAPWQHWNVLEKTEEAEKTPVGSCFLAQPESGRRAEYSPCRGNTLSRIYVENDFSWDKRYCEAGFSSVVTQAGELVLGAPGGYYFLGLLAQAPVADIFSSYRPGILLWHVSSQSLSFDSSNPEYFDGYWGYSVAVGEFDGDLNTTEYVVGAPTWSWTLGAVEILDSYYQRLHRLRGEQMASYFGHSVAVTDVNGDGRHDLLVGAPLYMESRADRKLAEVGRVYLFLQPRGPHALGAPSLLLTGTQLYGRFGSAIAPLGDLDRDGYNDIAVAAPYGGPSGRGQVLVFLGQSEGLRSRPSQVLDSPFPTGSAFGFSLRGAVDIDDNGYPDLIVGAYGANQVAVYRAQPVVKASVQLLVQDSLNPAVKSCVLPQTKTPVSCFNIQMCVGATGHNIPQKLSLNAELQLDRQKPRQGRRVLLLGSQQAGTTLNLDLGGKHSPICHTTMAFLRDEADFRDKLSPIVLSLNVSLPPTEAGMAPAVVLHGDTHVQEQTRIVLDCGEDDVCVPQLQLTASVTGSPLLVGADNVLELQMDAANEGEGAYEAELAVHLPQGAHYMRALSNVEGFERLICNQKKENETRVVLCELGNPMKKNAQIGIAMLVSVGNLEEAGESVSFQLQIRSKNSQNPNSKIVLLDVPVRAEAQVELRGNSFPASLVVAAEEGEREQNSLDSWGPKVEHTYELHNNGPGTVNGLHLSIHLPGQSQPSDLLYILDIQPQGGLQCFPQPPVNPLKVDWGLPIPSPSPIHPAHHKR
T1 sequence (P05106 27-788): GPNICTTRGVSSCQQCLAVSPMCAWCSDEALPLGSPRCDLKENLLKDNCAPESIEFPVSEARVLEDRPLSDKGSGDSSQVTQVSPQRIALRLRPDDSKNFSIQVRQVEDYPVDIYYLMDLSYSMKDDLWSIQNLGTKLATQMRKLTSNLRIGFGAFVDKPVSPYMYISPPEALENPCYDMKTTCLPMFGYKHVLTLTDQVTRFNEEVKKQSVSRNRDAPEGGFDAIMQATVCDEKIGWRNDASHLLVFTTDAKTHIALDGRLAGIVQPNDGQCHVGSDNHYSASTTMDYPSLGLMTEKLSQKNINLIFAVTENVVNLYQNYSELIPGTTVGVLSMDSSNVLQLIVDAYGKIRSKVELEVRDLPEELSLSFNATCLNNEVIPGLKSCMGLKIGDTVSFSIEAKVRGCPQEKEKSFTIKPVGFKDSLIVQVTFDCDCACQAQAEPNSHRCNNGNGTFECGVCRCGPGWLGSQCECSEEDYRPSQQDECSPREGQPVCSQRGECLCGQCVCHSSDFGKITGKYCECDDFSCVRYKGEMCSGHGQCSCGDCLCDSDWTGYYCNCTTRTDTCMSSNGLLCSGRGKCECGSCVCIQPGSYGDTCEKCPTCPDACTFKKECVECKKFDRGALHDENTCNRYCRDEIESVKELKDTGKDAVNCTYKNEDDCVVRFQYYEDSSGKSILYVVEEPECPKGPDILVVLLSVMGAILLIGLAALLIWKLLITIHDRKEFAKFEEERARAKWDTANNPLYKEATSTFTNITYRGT
From the text: The compounds of the present invention interrupt binding of fibrinogen to platelet glycoprotein IIb/IIIa (GPIIb/IIIa) and thereby inhibit platelet aggregation. […] Because the final, common pathway in normal platelet aggregation is the binding of fibrinogen to activated, exposed GPIIb/IIIa, inhibition of this binding represents a plausible antithrombotic approach. The receptor is activated by stimuli such as ADP, collagen, and thrombin, exposing binding domains to two different peptide regions of fibrinogen: α-chain Arg-Gly-Asp (RGD) and γ-chain 400-411.
IN VITRO SOLID PHASE PURIFIED GLYCOPROTEIN IIB/IIIA BINDING ASSAY.
The plate is covered and incubated overnight at 4° C. The GPIIb/IIa solution is discarded and 150 μl of 5% BSA is added and incubated at RT for 1-3 h. The plate is washed extensively with modified Tyrodes buffer. Biotinylated fibrinogen (25 μl/well) at 2× final concentration is added to the wells that contain the test compounds (25 μl/well) at 2× final concentration. The plate is covered and incubated at RT for 2-4 h. Twenty minutes prior to incubation completion, one drop of Reagent A (Vecta Stain ABC Horse Radish Peroxidase kit, Vector Laboratories, Inc.) and one drop Reagent B are added with mixing to 5 mL modified Tyrodes buffer mix and let stand. The ligand solution is discarded and the plate washed (5×200 μl/well) with modified Tyrodes buffer. Vecta Stain HRP-Biotin-Avidin reagent (50 μl/well, as prepared above) is added and incubated at RT for 15 min. The Vecta Stain solution is discarded and the wells washed (5×200 μl/well) with modified Tyrodes buffer. […] The absorbance is read at 490 nm.

gel-filtered platelets = assay: In vitro inhibition of thrombin-induced gel-filtered platelet aggregation assay; assay type: cell-based; settings: *Indicates IC50, read-out: Pl. Aggr. IC50
Method: IN VITRO INHIBITION OF THROMBIN-INDUCED GEL-FILTERED PLATELET AGGREGATION ASSAY.
The percentage of platelet aggregation is calculated as an increase in light transmission of compound treated platelet concentrate vs. control treated platelet concentrate. Blood is obtained from drug free, normal donors into tubes containing 0.13M sodium citrate. Platelet rich plasma (PRP) is collected by centrifugation of whole blood at 200×g for 10 min at 25° C. The PRP (5 mL) is gel filtered through Sepharose 2B (bed volume 50 mL), and the platelet count is adjusted to 2×10^7platelets per sample. The following constituents are added to a siliconized cuvette: concentrated platelet filtrate and Tyrode's buffer (0.1 4M NaCl, 0.0027M KCl, 0.01 2M NaHCO3, 0.76 mM Na2 HPO4, 0.0055M glucose, 2 mg/mL BSA and 5.0 mM HEPES @ pH 7.4) in an amount equal to 350 μl, 50 μl of 20 mM calcium and 50 μl of the test compound. Aggregation is monitored in a BIODATA aggregometerforthe 3 min following the addition of agonist (thrombin 50 μl of 1 unit/mL).

occlusive thrombus = assay: In vivo dog study: thrombus formation in extracorporeal arteriovenous shunt; set-up: species or system mongrel dogs; settings: for Thrombus Weight: mean ± SEM
Method: Compound 16 was tested in the following in vivo dog model to determine its therapeutic efficacy
(§1) Adult mongrel dogs of either sex 9-13 kg) were anesthetized with pentobarbital sodium (35 mg/kg, i.v.) and ventilated with room air via an endotracheal tube (12 strokes/min, 25 ml/kg). For arterial pressure determination, the left carotid artery was cannulated with a saline-filledpolyethylene catheter (PE-200) and connected to a Statham pressure transducer (P231D, Oxnard, Calif.). Mean arterial diastolic blood pressure. Heart rate was monitored using a cardiotachometer (Biotach, Gould
(§2) Electronics, Cleveland, Ohio) triggered from a lead 11 electrocardiogram generated by limb leads. A jugular vein was cannulated (PE-200) for drug administration. The left femoral artery and the left femoral vein were cannulated with silicon treated (Sigmacote, Sigma Chemical Co., St. Louis, Mo.), saline filled polyethylene tubing (PE-200) and connected with a 5 cm section of silicon treated tubing (PE-240) to form an extracorporeal arteriovenous shunt (A-V). Shunt patency was monitored using a Doppler flow system (model VF-1, Crystal Biotech Inc., Hopkinton, Mass.) and proximal to the locus of the shunt. All parameters were monitored continuously on a polygraph recorder (Gould TA-4000, Oxnard Calif.) at a paper speed of 10 mm/min.
(§3) On completion of a 15 min post surgical stabilization period, an occlusive thrombus was formed by the introduction of a thrombogenic surface (O braided silk thread, 5 cm in length, Ethicon Inc., Somerville, N.J.) into the shunt. Four consecutive 15 min shunt periods were employed with the first consisting of a vehicle infusion followed by increasing concentrations of Compound 16, SC-47643, saline with DMF or saline with citric acid administered as a bolus followed by an infusion beginning 5 min. before insertion of the thrombogenic surface and continued for an additional 15 min. AT the end of each 15 min shunt period the silk was carefully removed and weighed. A fifth shunt immediately following the total cumulative treatment dose was used to assess patency duration as indicated by time to total occlusion. Thrombus weight was calculated by subtracting the weight of the silk prior to placement from the total weight of the silk on removal from the shunt. Arterial blood was withdrawn prior to the first shunt and after each shunt period for determination of whole blood collagen-induced platelet aggregation, thrombin-induced platelet degranulation (platelet ATP release), prothrombin time and platelet count. Template bleeding time was performed beginning 10 min. into each shunt period.
(§4) Compound 16;1+0.03, 3+0.1 and 5+0.3 mg/kg, i.v. (bolus)+mg/kg/hr,i.v. (infusion) was solubilized in saline+DMF (5%) and serially diluted to achieve appropriate concentrations expressed as parent compound.
(§5) All values are expressed as the mean and standard error of the mean. Statistical significance of the change was assessed based on change from baseline suing analysis of variance and Student's t-test. Differences were considered significant when P<0.05.

platelet aggregation = assay: In vivo dog study: gamma thrombin- and collagen-induced platelet aggregation; set-up: species or system mongrel dogs; settings: mean ± SEM
Method: as §1, §2, §3
Whole blood platelet aggregation and ATP release were measured using a lumi-aggregation and ATP release were measured using a lumi-aggregometer (Chrono-log, Havertown, Pa.) by recording the change in impedance (platelet aggregation) and light transmission (ATP-release) through a stirred (1000 rpm) suspension of whole blood maintained at 37 C.
as §4, §5

SMILES: NCCCC[C@H](N)C(=O)N1CCCC(C(=O)NCCC(=O)O)C1 (stereo partly drawn) [Compound 4, H-L-Lys-Nip-γ-Ala-OH]
IC50 (GPIIb/IIIa): 2600 nM

SMILES: NCCCC[C@@H](N)C(=O)N1CCCC(C(=O)NCCC(=O)O)C1 (stereo partly drawn) [Compound 10, H-D-Lys-Nip-β-Ala-OH]
IC50 (GPIIb/IIIa): 760 nM

SMILES: NCCCCCC(=O)N1CCCC(C(=O)NCCC(=O)O)C1 (stereo not drawn) [Compound 5, N-(Nε- nocaroyl)-Nip-β-Ala-OH]
IC50 (GPIIb/IIIa): 13 nM | IC50 (gel-filtered platelets): 1600 nM

SMILES: CC(=O)N[C@@H](CCCCN)C(=O)N1CCCC(C(=O)NCC(=O)O)C1 (stereo partly drawn) [Compound 6, Nα-Ac-L-Lys-Nip-Gly-OH]
inhibition at 50 µM (GPIIb/IIIa): 24%

SMILES: CC(C)(C)OC(=O)N[C@H](CCCCN)C(=O)N1CCC[C@@H](C(=O)NCCC(=O)O)C1 [Compound 16, Nα-Boc-D-Lys-R-(-)-Nip-β-Ala-OH]
Incidence of occlusive thrombus formation (animals per group) (occlusive thrombus; Period 2, Dose 1 (1+0.03 mg/kg iv bolus + mg/kg/hr infusion)): 2/4 | Incidence of occlusive thrombus formation (animals per group) (occlusive thrombus; Period 3, Dose 2 (3+0.1)): 1/4 | Incidence of occlusive thrombus formation (animals per group) (occlusive thrombus; Period 4, Dose 3 (5+0.3)): 0/4 | Incidence of occlusive thrombus formation (animals per group) (occlusive thrombus; Post Treatment, monitored for 60 min): 3/4 | Thrombus Weight (occlusive thrombus; Shunt 2 - Dose 1 (1+0.03)): 52 ± 3 mg | Thrombus Weight (occlusive thrombus; Shunt 3 - Dose 2 (3+0.1), *P < 0.05): 27 ± 1 mg | Thrombus Weight (occlusive thrombus; Shunt 4 - Dose 3 (5+0.3), *P < 0.05): 19 ± 2 mg | Collagen-Induced Plat Agg (% inhib) (platelet aggregation; 2-Dose 1 (1+0.03)): 14 ± 3 % inhib | G-Thrombin-Induced Plat Agg (% inhib) (platelet aggregation; 2-Dose 1 (1+0.03)): 8 ± 5 % inhib | Collagen-Induced Plat Agg (% inhib) (platelet aggregation; 3-Dose 2 (3+0.1), *P < 0.05): 99 ± 1 % inhib | G-Thrombin-Induced Plat Agg (% inhib) (platelet aggregation; 3-Dose 2 (3+0.1), *P < 0.05): 34 ± 8 % inhib | Collagen-Induced Plat Agg (% inhib) (platelet aggregation; 4-Dose 3 (5+0.3), *P < 0.05): 100 ± 0 % inhib | G-Thrombin-Induced Plat Agg (% inhib) (platelet aggregation; 4-Dose 3 (5+0.3), *P < 0.05): 72 ± 8 % inhib | G-Thrombin-Induced Plat Agg (% inhib) (platelet aggregation; 30 min post): 21 ± 8 % inhib | Collagen-Induced Plat Agg (% inhib) (platelet aggregation; 30 min post, *P < 0.05): 82 ± 13 % inhib | G-Thrombin-Induced Plat Agg (% inhib) (platelet aggregation; 60 min post): 11 ± 5 % inhib | Collagen-Induced Plat Agg (% inhib) (platelet aggregation; 60 min post, *P < 0.05): 57 ± 14 % inhib

SMILES: CC(C)(C)OC(=O)N[C@@H](CCCCNC(=O)OCc1ccccc1)C(=O)N1CCCC(C(=O)NCCC(=O)OCc2ccccc2)C1 (stereo partly drawn) [Compound 1, Nα-Boc-L-Lys(Cbz)-Nip-Ala-OBn]
IC50 (GPIIb/IIIa): 20100 nM

Continued, values first:

inhibition at 5 µM (GPIIb/IIIa; read-out: Binding (column Binding IC50), % @ 5 μM): 20%
SMILES: CC(C)NCCCC[C@H](NC(=O)OC(C)(C)C)C(=O)N1CCCC(C(=O)NCCC(=O)O)C1 (stereo partly drawn) [Compound 15, Nα-Boc-L-Lys(i-Pr)-Nip-β-Ala-OH]

inhibition at 50 µM (GPIIb/IIIa): 59%
SMILES: CC(C)(C)OC(=O)N[C@@H](CCCCN)C(=O)N1CCCC(C(=O)NCCCC(=O)O)C1 (stereo partly drawn) [Compound 9, Nα-Boc-L-Lys-Nip-γ-aminobutyric acid]

IC50 (GPIIb/IIIa): 740 nM
SMILES: CC(C)(C)OC(=O)N[C@@H](CCCCN)C(=O)N1CCCC(C(=O)NCCC(=O)O)C1 (stereo partly drawn) [Compound 2, Nα-Boc-L-Lys-Nip-γ-Ala--OH]

IC50 (GPIIb/IIIa): 21 nM | IC50 (gel-filtered platelets): 600 nM
SMILES: CC(C)(C)OC(=O)N[C@H](CCCCN)C(=O)N1CCCC(C(=O)NCCC(=O)O)C1 (stereo partly drawn) [Compound 3, Nα-Boc-D-Lys-Nip-γ-Ala--OH]

IC50 (GPIIb/IIIa): 74 nM
SMILES: CC(=O)N[C@@H](CCCCN)C(=O)N1CCCC(C(=O)NCCC(=O)O)C1 (stereo partly drawn) [Compound 7, Nα-Ac-L-Lys-Nip-β-Ala-OH]

IC50 (GPIIb/IIIa): 340 nM
SMILES: CC(=O)N[C@H](CCCCN)C(=O)N1CCCC(C(=O)NCCC(=O)O)C1 (stereo partly drawn) [Compound 13, Nα-Ac-D s-Nip-β-Ala-OH]
